Experimental data taken from publication PMC7827417, “Steroid Glycosides Hyrcanoside and Deglucohyrcanoside: On Isolation, Structural Identification, and Anticancer Activity” (Foods, 2021).
Where two headings read alike, the source gives them in different places.

What was measured:
[1] = tested on: CCRF-CEM; test: MTS cytotoxic assay, CCRF-CEM; format: cell-based; settings: Homo sapiens, 72 h
Excerpt: (§1) If not indicated otherwise, the cell lines were purchased from the American Type Culture Collection (ATCC). […] K562 is the erythroid-myeloid precursor cell line derived from chronic myeloid leukemia carrying the BCR-ABL hybrid gene. A549, MCF-7, PC-3, 5637, U-2 OS, and MiaPaCa-2 are cells derived from lung, breast, prostate, bladder carcinoma, osteosarcoma, and pancreatic adenocarcinoma, respectively. HEK 293T are transformed human embryonic kidney cells, and L929 (Sigma, St. Louis, MS, USA) are transformed mouse fibroblasts. HCT116, cells from colorectal carcinoma, and their p53 gene knock-out variant (HCT116p53-/-) were purchased from Horizon Discovery. This cell line is a model of human tumors bearing p53 loss-of-function mutations or biallelic deletion of the p53 gene, frequently associated with poor prognosis. The MRC-5 and BJ cells were used as noncancerous cells; more specifically, they are human fibroblasts from the lungs and foreskin, respectively. According to the supplier’s recommendations, all cells were cultured at 37 °C in a 5% CO2 atmosphere and 100% humidity. The culture media used were: DMEM, RPMI 1640, and MEM (according to a cell line); all were supplemented with 5 g L^−1 glucose, 10% fetal calf serum, 2 mM glutamine, 100 U mL^−1 penicillin, 100 µg mL^−1 streptomycin, and NaHCO3. Cells were passaged every two or three days using 0.25% trypsin plus 0.01% EDTA (ethylenediamine tetraacetic acid) in phosphate-buffered saline.
(§2) To evaluate compound cytotoxicity, cells were seeded in 384-well microtiter plates in a volume of […]. The next day, aliquots of the tested derivatives were transferred with Echo550 acoustic liquid handler (Labcyte) to obtain dose response curves with dilution factor 4. The experiments were performed in technical duplicates and three or more biological replicates. After 72 h of incubation in a humidified incubator, […] of the MTS/PMS stock solution were pipetted into each well. After another 1–4 h of incubation, the absorbance at 490 nm was measured using an EnVision Multilabel Plate Reader (PerkinElmer).

[2] = tested on: K562; test: MTS cytotoxic assay, K562; format: cell-based; settings: Homo sapiens
Excerpt: as §1, §2

[3] = tested on: A549; test: MTS cytotoxic assay, A549; format: cell-based; settings: Homo sapiens
Excerpt: as §1, §2

[4] = tested on: HCT116p53-/-; test: MTS cytotoxic assay, HCT116p53-/-; format: cell-based; settings: Homo sapiens, 72 h
Excerpt: as §1, §2

[5] = tested on: MiaPaCa-2; test: MTS cytotoxic assay, MiaPaCa-2; format: cell-based; settings: Homo sapiens
Excerpt: as §1, §2

[6] = tested on: MCF-7; test: MTS cytotoxic assay, MCF-7; format: cell-based; settings: Homo sapiens
Excerpt: as §1, §2

[7] = tested on: U-2 OS; test: MTS cytotoxic assay, U-2 OS; format: cell-based; settings: Homo sapiens, U2OS, 72 h
Excerpt: as §1, §2

[8] = tested on: 5637; test: MTS cytotoxic assay, 5637; format: cell-based; settings: Homo sapiens, 72 h
Excerpt: as §1, §2

[9] = tested on: PC-3; test: MTS cytotoxic assay, PC-3; format: cell-based; settings: Homo sapiens
Excerpt: as §1, §2

[10] = tested on: HEK 293T; test: MTS cytotoxic assay, HEK 293T; format: cell-based; settings: Homo sapiens, 72 h
Excerpt: as §1, §2

[11] = tested on: MRC-5; test: MTS cytotoxic assay, MRC-5; format: cell-based; settings: Homo sapiens
Excerpt: as §1, §2

[12] = tested on: BJ; test: MTS cytotoxic assay, BJ; format: cell-based; settings: Homo sapiens, 72 h
Excerpt: as §1, §2

[13] = tested on: L929; test: MTS cytotoxic assay, L929; format: cell-based, mouse
Excerpt: as §1, §2

[14] = tested on: CCRF-CEM cells; test: Cell cycle arrest and cell death analysis by flow cytometry (propidium iodide, pH3Ser10); format: cell-based, human; settings: % of positive cells
Method: Together with the CG-treated cells, a vehicle-treated sample was harvested at the same time point. After 24 h, the cells were washed with cold phosphate-buffered saline, fixed dropwise in 70% ethanol, and stored overnight at −20 °C. The cells were then washed with hypotonic citrate buffer, treated with RNAse (50 µg mL^−1), and stained with propidium iodide. Flow cytometry using a 488 nm laser (FACS-Calibur, Becton Dickinson, NJ, USA) was used for measurement. The cell cycle was analyzed by the ModFitLT program (Verity), and apoptosis was measured in a logarithmic model expressing the percentage of particles with a lower propidium content than cells in the G0/G1 phase (<G1) of the cell cycle in the CellQuest program (Becton Dickinson). Half of the sample was used to label cells with pH3^Ser10-FITC antibody (Exbio) for subsequent flow cytometry analysis of mitotic cells.

[15] = tested on: CCRF-CEM cells; test: BrDU incorporation analysis (DNA synthesis); format: cell-based, human; settings: % of positive cells
Method: The cells were cultured in the same way as the cell cycle analysis method. Just before harvesting, 5-bromo-2′-deoxyuridine (BrDU) of 10 µM concentration was added to the cells for pulse-labeling for 30 min. Then, the cells were fixed with −20 °C cold 70% ethanol and stored in a freezer for 16 h. Before antibody staining, the samples were incubated on ice for 30 min, washed once with phosphate-buffered saline (PBS), and re-suspended in 2 M of HCl for 30 min at room temperature to hydrolyze their DNA. After neutralization with 0.1 M of Na2B4O7 (borax) solution, the cells were washed with PBS containing 0.5% Tween-20 and 1% BSA. This was followed by staining with the primary anti-BrDU antibody (Exbio) for 30 min at room temperature. Then, the cells were washed with PBS and stained with a secondary anti-mouse antibody conjugated to fluorescein isothiocyanate (Merck-Sigma, St. Louis, MS, USA) at room temperature in the dark. After another washing with PBS and incubation with propidium iodide (0.1 mg·mL^−1) and RNAse A (0.5 mg·mL^−1) for 1 h at room temperature in the dark, the cells were analyzed by flow cytometry using a 488 nm laser (FACSCalibur, Becton Dickinson, Franklin Lakes, NJ, USA).

[16] = tested on: CCRF-CEM cells; test: BrU incorporation analysis (RNA synthesis); format: cell-based, human; settings: % of positive cells
Method: The cells were cultured and processed as described above. Before harvesting, the cells were pulse-labeled with 1 mM of 5-bromouridine (BrU) for 30 min. The cells were then fixed in 1% buffered paraformaldehyde with 0.05% NP-40 at room temperature for 15 min, and then stored at 4 °C overnight. Before measurement, they were washed with 1% glycine in PBS, washed again with PBS, and stained with primary anti-BrdU antibody cross-reactive to BrU (Exbio) for 30 min at room temperature in the dark. From this point on, the experiment was performed exactly as in the method described above.

| SMILES | IC50 [1] [nM] | IC50 ([2]; K562, 72 h) [nM] | IC50 ([3]; A549, 72 h) [nM] | IC50 [4] [nM] | IC50 ([5]; MIA PaCa-2, 72 h) [nM] | IC50 ([6]; MCF7, 72 h) [nM] | < G1 (apoptotic cells) ([14]; 1 × IC50, 24 h) [%] | G0/G1 ([14]; 1 × IC50, 24 h) [%] | G2/M ([14]; 1 × IC50, 24 h) [%] | M (Phospho-Histone3 (Ser10)) ([14]; 1 × IC50, 24 h) [%] | S ([14]; 1 × IC50, 24 h) [%] | < G1 (apoptotic cells) ([14]; 5 × IC50, 24 h) [%] | G0/G1 ([14]; 5 × IC50, 24 h) [%] | G2/M ([14]; 5 × IC50, 24 h) [%] | M (Phospho-Histone3 (Ser10)) ([14]; 5 × IC50, 24 h) [%] | S ([14]; 5 × IC50, 24 h) [%] | BrDU ([15]; 1 × IC50, 24 h) [%] | BrDU ([15]; 5 × IC50, 24 h) [%] | BrU ([16]; 1 × IC50, 24 h) [%] | BrU ([16]; 5 × IC50, 24 h) [%] | further results |
| --- | --- | --- | --- | --- | --- | --- | --- | --- | --- | --- | --- | --- | --- | --- | --- | --- | --- | --- | --- | --- | --- |
| C[C@]12CC[C@H]3[C@@H](CCC4=C[C@@H](O[C@@H]5OC[C@@H](O)[C@H](O)[C@H]5O)CC[C@@]43C=O)[C@@]1(O)CC[C@@H]2C1=CC(=O)OC1 [deHyr, deglucohyrcanoside] | 110 ± 21 | 130 ± 21 | 90 ± 14 | 130 ± 23 | 120 ± 5.2 | 119 ± 6.4 | 22.02 | 44.90 | 37.50 | 1.44 | 17.60 | 27.43 | 39.12 | 26.34 | 1.56 | 34.53 | 37.40 | 6.08 | 38.91 | 12.17 | IC50 [7]: 165 ± 11 nM; IC50 [8]: 398 ± 46 nM; IC50 ([9]; PC-3, 72 h): 122 ± 4.7 nM; IC50 ([10]; HEK-293T): 38 ± 0.97 nM; IC50 ([11]; MRC5, 72 h): 77 ± 12 nM; IC50 ([12]; BJ): 230 ± 35 nM; IC50 ([13]; Mus musculus, L929, 72 h): > 10000 nM |
| CO[C@H]1C[C@H](O[C@H]2CC[C@]3(C=O)[C@H]4CC[C@]5(C)[C@@H](C6=CC(=O)OC6)CC[C@]5(O)[C@@H]4CC[C@]3(O)C2)O[C@H](C)[C@H]1O [Cy, cymarin] | 14 ± 2.1 | 25 ± 4.5 | 15 ± 1.8 | 19 ± 3.8 | 44 ± 8.6 | 29 ± 8.1 | 2.89 | 35.78 | 24.35 | 1.43 | 39.87 | 7.01 | 40.34 | 28.49 | 1.08 | 31.17 | 32.34 | 21.37 | 35.63 | 27.52 | IC50 [7]: 43 ± 1.8 nM; IC50 [8]: 89 ± 5.5 nM; IC50 ([9]; PC-3, 72 h): 26 ± 2.9 nM; IC50 ([10]; HEK-293T): 3.02 ± 1.4 nM; IC50 ([11]; MRC5, 72 h): 26 ± 2.4 nM; IC50 ([12]; BJ): 54 ± 10 nM; IC50 ([13]; Mus musculus, L929, 72 h): > 10000 nM |
| C[C@@H]1O[C@@H](O[C@H]2C[C@@H](O)[C@]3(CO)[C@H]4[C@H](O)C[C@]5(C)[C@@H](C6=CC(=O)OC6)CC[C@]5(O)[C@@H]4CC[C@]3(O)C2)[C@H](O)[C@H](O)[C@H]1O [Ob, ouabain] |  |  |  |  |  |  | 20.68 | 40.42 | 33.80 | 1.73 | 25.78 | 33.31 | 33.94 | 25.27 | 0.63 | 40.80 | 40.53 | 19.29 | 39.77 | 6.56 | IC50 ([1]; MTS, read-out: IC50): 32 ± 5.8 nM; IC50 ([2]; K562, MTS, 72 h, read-out: IC50): 57 ± 6.2 nM; IC50 ([3]; A549, MTS, 72 h, read-out: IC50): 22 ± 0.94 nM; IC50 ([4]; HCT116p53-/-, MTS, read-out: IC50): 28 ± 7.6 nM; IC50 ([5]; MIA PaCa-2, MiaPaCa-2, MTS, 72 h, read-out: IC50): 49 ± 2.01 nM; IC50 ([6]; MCF7, MCF-7, MTS, 72 h, read-out: IC50): 52 ± 5.6 nM; IC50 ([7]; U-2 OS, MTS, read-out: IC50): 59 ± 1.1 nM; IC50 ([8]; 5637, MTS, read-out: IC50): 110 ± 11 nM; IC50 ([9]; PC-3, MTS, 72 h, read-out: IC50): 49 ± 1.4 nM; IC50 ([10]; HEK 293T, MTS, read-out: IC50): 35 ± 1.2 nM; IC50 ([11]; MRC5, MRC-5 noncancerous lung fibroblasts, MTS, 72 h, read-out: IC50): 39 ± 1.6 nM; IC50 ([12]; BJ noncancerous foreskin fibroblasts, MTS, read-out: IC50): 54 ± 9.9 nM; IC50 ([13]; L929 mouse transformed fibroblasts, MTS, 72 h, read-out: IC50): > 10000 nM |
